Measurements taken from patent US9695135B2, “Therapeutic catechols” (priority 2014, dated 2017).

Target: T1, PAN domain endonuclease (Influenza A virus, UniProt C3W5S0)
T1 construct: The PAN domain of 2009 pandemic H1N1 virus polymerase (residues 1-204) has now been crystallized
Experiment: Endonuclease inhibition assay (FRET, FAM/MGBNFQ TaqMan-like probe cleavage by PAN)
Format: biochemical, influenza A (2009 pandemic H1N1 virus)
Conditions: 25 nM endonuclease, 50 nM probe, 37 degrees Celsius, fluorescence ex 488 nm / em 518 nm
From the text: A TaqMan-like oligonucleotide was used containing a 6-carboxy-fluorescein (FAM) fluorophore at the 5′-end followed by 19 nucleotides and a minor groove binding non-fluorescent quencher (MGBNFQ, Applied Biosystems) at the 3′-end. When excited by light at a wavelength of 488 nm, MGBNFQ quenches the fluorescence of FAM via fluorescence resonance energy transfer. If the endonuclease cleaves the oligonucleotide, the quencher is no longer coupled to the fluorophore, and therefore, FAM fluoresces. This assay can be performed in a high-throughput (e.g. 96 well plate) format. The assay can be used to evaluate the inhibitory characteristics of compounds that are found to bind PAN and to screen libraries of drug-like compounds. The assay uses the probe 6FAM-[…]-MGBNFQ (SEQ ID NO: 1)
The assay can be performed in a 40 μl reaction volume with 50 mM Tris pH 7.5, 50 mM NaCl, 1 mM MgSO4, 0.5 mM MnSO4, 1 mM DTT, 0.75 mM CHAPS, 50 nM probe, and 25 nM endonuclease.
The reaction mixture is set up as a master mix with the buffer, probe, and protein on ice. The inhibitor is then added to a maximum DMSO concentration of 2.5% (v/v) and serial dilutions are made on ice. Varioskan Fluorometer (Thermo Scientific), set to an excitation of 488 nm and emission of 518 nm, is used to measure the fluorescence of the samples at 37 degrees Celsius. Fluorescence is measured at various time points (5, 120, and 240 minutes) during the 37 degrees Celsius incubation. Activity/inhibition is calculated based on the change in fluorescence over time using Prism Graphpad non-linear regression analysis.

Compound | IC50 [nM]
O=[N+]([O-])c1c(O)c(O)cc(-c2ccc(F)cc2)c1-c1ccc(F)cc1 [Example 2] | 434
N#Cc1ccc(-c2cc(O)c(O)c([N+](=O)[O-])c2-c2ccc(C#N)cc2)cc1 [Example 4] | 194
N#Cc1ccc(-c2cc(O)c(O)cc2-c2ccc(C#N)cc2)cc1 [Example 3, 4′,5′-dihydroxy-[1,1′:2′,1″-terphenyl]-4,4″-dicarbonitrile] | 395
Oc1cc(-c2ccc(-c3nnn[nH]3)cc2)c(-c2ccc(-c3nnn[nH]3)cc2)cc1O [Example 7] | 847
Oc1cc(-c2ccc(F)cc2)c(-c2ccc(F)cc2)cc1O [Example 1] | 390
Oc1cc(-c2ccc(F)cc2)c(-c2ccc(-c3nnn[nH]3)cc2)cc1O [Example 6] | 425
N#Cc1ccc(-c2cc(O)c(O)cc2-c2ccc(F)cc2)cc1 [Example 5, 4″-fluoro-4′,5′-dihydroxy-[1,1′:2′,1″-terphenyl]-4-carbonitrile] | 290
